Experiments:
Assay type in all cases: in vivo
[1] = tested on: sedge, umbrella (small-flower umbrella sedge, Cyperus difformis); assay: Test B flooded paddy test, visual plant response rating; details: 250 g ai/ha, Flood, applied to paddy water, 2-leaf stage, evaluated after 13 to 15 days
How it was run: (§1)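 Compounds added straight into paddy water of pots flooded to 3 cm, with 2-leaf-stage plants of the four species; water level held throughout.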

[2] = tested on: ducksalad (Heteranhera limosa); assay: as above; details: 250 g ai/ha, Flood, applied to paddy water, 2-leaf stage, evaluated after 13 to 15 days
How it was run: as §1

rice (Oryza sativa) = assay: as above; details: 250 g ai/ha, Flood, applied to paddy water, 2-leaf stage, evaluated after 13 to 15 days
How it was run: as §1

[3] = tested on: barnyardgrass (Echinochloa crus-galli); assay: as above; details: 250 g ai/ha, Flood, applied to paddy water, 2-leaf stage, evaluated after 13 to 15 days
How it was run: as §1

kochia (Kochia scoparia) [4] = assay: Test A preemergence, visual plant response rating; details: for Kochia plant response rating: 125 g ai/ha, preemergence, 0 to 100 scale, 0 no effect, 100 complete control; for Kochia plant response rating (0 to 100 scale): 500 g ai/ha Preemergence, approx. 10 days
How it was run: (§2)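 Ratings 0–100 (100 = complete control), visual, vs untreated controls at ~10 days. Application pre- or postemergence; solvent mixture with surfactant; loam/sand medium.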

[5] = tested on: foxtail, giant (giant foxtail, Setaria faberii); assay: Test A preemergence, visual plant response rating; details: for Foxtail, Giant plant response rating: 125 g ai/ha, preemergence, 0 to 100 scale, 0 no effect, 100 complete control; for Foxtail, Giant plant response rating (0 to 100 scale): 500 g ai/ha Preemergence, approx. 10 days
How it was run: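 Formulated in a non-phytotoxic solvent mixture including surfactant, each test chemical was sprayed onto the soil surface after sowing, or onto seedlings 2 to 10 cm high. Roughly 10 days later, plants were compared with untreated controls and rated for injury from 0 (no effect) to 100 (complete control).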

[6] = tested on: ragweed (common ragweed, Ambrosia elatior); assay: Test A preemergence, visual plant response rating; details: for Ragweed plant response rating: 125 g ai/ha, preemergence, 0 to 100 scale, 0 no effect, 100 complete control; for Ragweed plant response rating (0 to 100 scale): 500 g ai/ha Preemergence, approx. 10 days
How it was run: as §2

[7] = tested on: pigweed (Amaranthus retroflexus); assay: Test A preemergence, visual plant response rating; details: for Pigweed plant response rating: 125 g ai/ha, preemergence, 0 to 100 scale, 0 no effect, 100 complete control; for Pigweed plant response rating (0 to 100 scale): 500 g ai/ha Preemergence, approx. 10 days
How it was run: as §2

[8] = tested on: Italian ryegrass (Lolium multiflorum); assay: Test A preemergence, visual plant response rating; details: for Ryegrass, Italian plant response rating: 125 g ai/ha, preemergence, 0 to 100 scale, 0 no effect, 100 complete control; for Ryegrass, Italian plant response rating (0 to 100 scale): 500 g ai/ha Preemergence, approx. 10 days
How it was run: as §2

[9] = tested on: barnyardgrass (Echinochloa crus-galli); assay: Test A preemergence, visual plant response rating; details: for Barnyardgrass plant response rating: 125 g ai/ha, preemergence, 0 to 100 scale, 0 no effect, 100 complete control; for Barnyardgrass plant response rating (0 to 100 scale): 500 g ai/ha Preemergence, approx. 10 days
How it was run: as §2

[10] = tested on: galium (catchweed bedstraw, Galium aparine); assay: Test A postemergence, visual plant response rating; details: for Galium plant response rating (0 to 100 scale): 500 g ai/ha, postemergence, 0 is no effect, 100 is complete control; for Galium plant response rating: Postemergence, 125 g ai/ha, 0 to 100 scale (0 no effect, 100 complete control)
How it was run: as §2

corn (Zea mays) = assay: Test A postemergence, visual plant response rating; details: for Corn plant response rating (0 to 100 scale): 500 g ai/ha, postemergence, 0 is no effect, 100 is complete control; for Corn plant response rating: Postemergence, 125 g ai/ha, 0 to 100 scale (0 no effect, 100 complete control)
How it was run: as §2

kochia (Kochia scoparia) [11] = assay: Test A postemergence, visual plant response rating; details: for Kochia plant response rating (0 to 100 scale): 500 g ai/ha, postemergence, 0 is no effect, 100 is complete control; for Kochia plant response rating: Postemergence, 125 g ai/ha, 0 to 100 scale (0 no effect, 100 complete control)
How it was run: as §2

[12] = tested on: foxtail, giant (giant foxtail, Setaria faberii); assay: Test A postemergence, visual plant response rating; details: for Foxtail, Giant plant response rating (0 to 100 scale): 500 g ai/ha, postemergence, 0 is no effect, 100 is complete control; for Foxtail, Giant plant response rating: Postemergence, 125 g ai/ha, 0 to 100 scale (0 no effect, 100 complete control)
How it was run: as §2

[13] = tested on: blackgrass (Alopecurus myosuroides); assay: Test A postemergence, visual plant response rating; details: for Blackgrass plant response rating (0 to 100 scale): 500 g ai/ha, postemergence, 0 is no effect, 100 is complete control; for Blackgrass plant response rating: Postemergence, 125 g ai/ha, 0 to 100 scale (0 no effect, 100 complete control)
How it was run: as §2

[14] = tested on: ragweed (common ragweed, Ambrosia elatior); assay: Test A postemergence, visual plant response rating; details: for Ragweed plant response rating (0 to 100 scale): 500 g ai/ha, postemergence, 0 is no effect, 100 is complete control; for Ragweed plant response rating: Postemergence, 125 g ai/ha, 0 to 100 scale (0 no effect, 100 complete control)
How it was run: as §2

[15] = tested on: pigweed (Amaranthus retroflexus); assay: Test A postemergence, visual plant response rating; details: for Pigweed plant response rating (0 to 100 scale): 500 g ai/ha, postemergence, 0 is no effect, 100 is complete control; for Pigweed plant response rating: Postemergence, 125 g ai/ha, 0 to 100 scale (0 no effect, 100 complete control)
How it was run: as §2

[16] = tested on: wheat (Triticum aestivum); assay: Test A postemergence, visual plant response rating; details: for Wheat plant response rating (0 to 100 scale): 500 g ai/ha, postemergence, 0 is no effect, 100 is complete control; for Wheat plant response rating: Postemergence, 125 g ai/ha, 0 to 100 scale (0 no effect, 100 complete control)
How it was run: as §2

[17] = tested on: Italian ryegrass (Lolium multiflorum); assay: Test A postemergence, visual plant response rating; details: for Ryegrass, Italian plant response rating (0 to 100 scale): 500 g ai/ha, postemergence, 0 is no effect, 100 is complete control; for Ryegrass, Italian plant response rating: Postemergence, 125 g ai/ha, 0 to 100 scale (0 no effect, 100 complete control)
How it was run: as §2

[18] = tested on: barnyardgrass (Echinochloa crus-galli); assay: Test A postemergence, visual plant response rating; details: for Barnyardgrass plant response rating (0 to 100 scale): 500 g ai/ha, postemergence, 0 is no effect, 100 is complete control; for Barnyardgrass plant response rating: Postemergence, 125 g ai/ha, 0 to 100 scale (0 no effect, 100 complete control)
How it was run: as §2

SMILES	Plant response rating, Sedge, Umbrella (0 to 100 scale, 0 is no effect, 100 is complete control) [1]	Plant response rating, Ducksalad (0 to 100 scale, 0 is no effect, 100 is complete control) [2]	Plant response rating, Rice (0 to 100 scale, 0 is no effect, 100 is complete control) (rice (Oryza sativa))	Plant response rating, Barnyardgrass (0 to 100 scale, 0 is no effect, 100 is complete control) [3]	Kochia plant response rating (kochia (Kochia scoparia) [4])	Kochia plant response rating (0 to 100 scale) (kochia (Kochia scoparia) [4])	Foxtail, Giant plant response rating [5]	Foxtail, Giant plant response rating (0 to 100 scale) [5]	Ragweed plant response rating [6]	Ragweed plant response rating (0 to 100 scale) [6]	Pigweed plant response rating [7]	Pigweed plant response rating (0 to 100 scale) [7]	Ryegrass, Italian plant response rating [8]	Ryegrass, Italian plant response rating (0 to 100 scale) [8]	Barnyardgrass plant response rating [9]	Barnyardgrass plant response rating (0 to 100 scale) [9]	Galium plant response rating (0 to 100 scale) [10]	Galium plant response rating [10]	Corn plant response rating (0 to 100 scale) (corn (Zea mays))	Corn plant response rating (corn (Zea mays))	also measured
CO/N=C(\c1csc(C)c1)c1c(O)c(C)nn(C)c1=O [Compound 44]	0	0	0	0	0	0	0	10	0	0	0	0	0	50	0	10	50	20	20	0	Kochia plant response rating (0 to 100 scale) (kochia (Kochia scoparia) [11]): 0; Kochia plant response rating (kochia (Kochia scoparia) [11]): 0; Foxtail, Giant plant response rating (0 to 100 scale) [12]: 50; Foxtail, Giant plant response rating [12]: 0; Blackgrass plant response rating (0 to 100 scale) [13]: 30; Blackgrass plant response rating [13]: 0; Ragweed plant response rating (0 to 100 scale) [14]: 40; Ragweed plant response rating [14]: 0; Pigweed plant response rating (0 to 100 scale) [15]: 10; Pigweed plant response rating [15]: 10; Wheat plant response rating (0 to 100 scale) [16]: 0; Wheat plant response rating [16]: 0; Ryegrass, Italian plant response rating (0 to 100 scale) [17]: 0; Ryegrass, Italian plant response rating [17]: 20; Barnyardgrass plant response rating (0 to 100 scale) [18]: 30; Barnyardgrass plant response rating [18]: 0
CO/N=C(/c1ccccc1F)c1c(O)c(C)nn(C)c1=O [Compound 34]	0	0	0	0	0	0	0	40	20	50	0	10	10	60	0	0	70	40	0	0	Kochia plant response rating (0 to 100 scale) (kochia (Kochia scoparia) [11]): 20; Kochia plant response rating (kochia (Kochia scoparia) [11]): 10; Foxtail, Giant plant response rating (0 to 100 scale) [12]: 10; Foxtail, Giant plant response rating [12]: 0; Blackgrass plant response rating (0 to 100 scale) [13]: 10; Blackgrass plant response rating [13]: 0; Ragweed plant response rating (0 to 100 scale) [14]: 50; Ragweed plant response rating [14]: 40; Pigweed plant response rating (0 to 100 scale) [15]: 20; Pigweed plant response rating [15]: 20; Wheat plant response rating (0 to 100 scale) [16]: 20; Wheat plant response rating [16]: 20; Ryegrass, Italian plant response rating (0 to 100 scale) [17]: 60; Ryegrass, Italian plant response rating [17]: 20; Barnyardgrass plant response rating (0 to 100 scale) [18]: 20; Barnyardgrass plant response rating [18]: 0
Cc1nn(C)c(=O)c(C(=NOCC=CCl)c2ccc(F)c3ccccc23)c1O [Compound 106]	0	0	0	0	0	20	100	100	40	80	50	80	60	90	50	90	90	80	30	20	Kochia plant response rating (0 to 100 scale) (kochia (Kochia scoparia) [11]): 50; Kochia plant response rating (kochia (Kochia scoparia) [11]): 20; Foxtail, Giant plant response rating (0 to 100 scale) [12]: 70; Foxtail, Giant plant response rating [12]: 60; Blackgrass plant response rating (0 to 100 scale) [13]: 90; Blackgrass plant response rating [13]: 80; Ragweed plant response rating (0 to 100 scale) [14]: 90; Ragweed plant response rating [14]: 70; Pigweed plant response rating (0 to 100 scale) [15]: 80; Pigweed plant response rating [15]: 70; Wheat plant response rating (0 to 100 scale) [16]: 50; Wheat plant response rating [16]: 0; Ryegrass, Italian plant response rating (0 to 100 scale) [17]: 100; Ryegrass, Italian plant response rating [17]: 70; Barnyardgrass plant response rating (0 to 100 scale) [18]: 90; Barnyardgrass plant response rating [18]: 80
CO/N=C(\c1cc(C)ccc1Cl)c1c(O)c(C)nn(C)c1=O [Compound 38]	0	0	0	0	0	20	0	10	30	30	0	0	0	0	0	0	90	80	20	10	Kochia plant response rating (0 to 100 scale) (kochia (Kochia scoparia) [11]): 50; Kochia plant response rating (kochia (Kochia scoparia) [11]): 10; Foxtail, Giant plant response rating (0 to 100 scale) [12]: 30; Foxtail, Giant plant response rating [12]: 10; Blackgrass plant response rating (0 to 100 scale) [13]: 30; Blackgrass plant response rating [13]: 10; Ragweed plant response rating (0 to 100 scale) [14]: 70; Ragweed plant response rating [14]: 60; Pigweed plant response rating (0 to 100 scale) [15]: 60; Pigweed plant response rating [15]: 20; Wheat plant response rating (0 to 100 scale) [16]: 0; Wheat plant response rating [16]: 0; Ryegrass, Italian plant response rating (0 to 100 scale) [17]: 20; Ryegrass, Italian plant response rating [17]: 10; Barnyardgrass plant response rating (0 to 100 scale) [18]: 20; Barnyardgrass plant response rating [18]: 20
CON=C(c1ccccc1C1CC1)c1c(O)c(C)nn(C)c1=O [Compound 105]	0	0	0	0	10	70	60	90	50	60	70	70	90	100	60	80	90	90	30	10	Kochia plant response rating (0 to 100 scale) (kochia (Kochia scoparia) [11]): 80; Kochia plant response rating (kochia (Kochia scoparia) [11]): 70; Foxtail, Giant plant response rating (0 to 100 scale) [12]: 80; Foxtail, Giant plant response rating [12]: 70; Blackgrass plant response rating (0 to 100 scale) [13]: 90; Blackgrass plant response rating [13]: 80; Ragweed plant response rating (0 to 100 scale) [14]: 90; Ragweed plant response rating [14]: 90; Pigweed plant response rating (0 to 100 scale) [15]: 70; Pigweed plant response rating [15]: 60; Wheat plant response rating (0 to 100 scale) [16]: 80; Wheat plant response rating [16]: 60; Ryegrass, Italian plant response rating (0 to 100 scale) [17]: 90; Ryegrass, Italian plant response rating [17]: 90; Barnyardgrass plant response rating (0 to 100 scale) [18]: 80; Barnyardgrass plant response rating [18]: 40

— patent US20210045385A1, “PYRIDAZINONE-SUBSTITUTED KETOXIMES AS HERBICIDES” (FMC Corporation, priority 2018, published 2021)
